The test system of one data set is HCC1806. Briefly: Drug sensitivity categorisation of breast cancer cell line HCC1806. It counts as cell-based, human. The note with it: TNBC cell line HCC1806; categorised from IC50, ln(IC50), EC50, ln(EC50). The source says:
(§1) Drug Sensitivity Data of Breast Cancer Cell Lines The drug sensitivity data of breast cancer cell lines were obtained from two distinct sources. The first source was the Profiling Relative Inhibition Simultaneously in Mixtures (PRISM) [Corsello, S. M.; Nagari, R. T.; Spangler, R. D.; Rossen, J.; Kocak, M.; Bryan, J. G.; Humeidi, R.; Peck, D.; Wu, X.; Tang, A. A.; et al. Discovering the anti-cancer potential of non-oncology drugs by systematic viability profiling. Nature cancer 2020, 1, 235-248, doi:10.1038/s43018-019-0018-6] secondary screen data, which was provided in the DepMap 19Q4 data release (https://depmap.org/portal, accessed on 23 May 2023). The second source encompassed the Genomics of Drug Sensitivity in Cancer (GDSC1 and GDSC2) datasets [Yang, W.; Soares, J.; Greninger, P.; Edelman, E. J.; Lightfoot, H.; Forbes, S.; Bindal, N.; Beare, D.; Smith, J. A.; Thompson, I. R.; et al. Genomics of Drug Sensitivity in Cancer (GDSC): a resource for therapeutic biomarker discovery in cancer cells. Nucleic acids research 2013, 41, D955-961, doi:10.1093/nar/gksllll, Iorio, F.; Knijnenburg, T. A.; Vis, D. J.; Bignell, G. R.; Menden, M. P.; Schubert, M.; Aben, N.; Goncalves, E.; Barthorpe, S.; Lightfoot, H.; et al. A Landscape of Pharmacogenomic Interactions in Cancer. Cell 2016, 166, 740-754, doi:10.1016/j.cell.2016.06.017, Garnett, M. J.; Edelman, E. J.; Heidorn, S. J.; Greenman, C. D.; Dastur, A.; Lau, K. W.; Greninger, P.; Thompson, I. R.; Luo, X.; Soares, J.; et al. Systematic identification of genomic markers of drug sensitivity in cancer cells. Nature 2012, 483, 570-575, doi:10.1038/nature11005], which were made available through CancerRxGene (https://www.cancerrxgene.org/, accessed on 25 May 2023). In this study, we examined drug sensitivity using various measurements, including IC50, ln(IC50), EC50, and ln(EC50). Further details regarding the categorization of drug sensitivity and resistance can be found in our previous work [Ye, Q.; Mohamed, R.; Dukhlallah, D.; Gencheva, M.; Hu, G.; Pearce, M. C.; Kolluri, S. K.; Marsh, C. B.; Eubank, T. D.; Ivanov, A. V.; et al. Molecular Analysis of ZNF71 KRAB in Non-Small-Cell Lung Cancer. International journal of molecular sciences 2021, 22, doi:10.3390/ijms22073752, Ye, Q.; Singh, S.; Qian, P. R.; Guo, N. L. Immune-Omics Networks of CD27, PD1, and PDL1 in Non-Small Cell Lung Cancer. Cancers (Basel) 2021, 13, doi:10.3390/cancers13174296].
(§2) For drug sensitivity analysis, we classified the breast cancer cell lines as sensitive or resistant to each drug based on the measurements of IC50, ln(IC50), EC50, and ln(EC50), following the classification method described in our previous publications. Both mRNA and protein expression levels were considered in determining the association with drug sensitivity.

The next data set relates to HCC1937. As to the kind of experiment: Drug sensitivity (PRISM) of breast cancer cell line HCC1937. It counts as cell-based, human. The note with it: TNBC cell line HCC1937; categorised from IC50, ln(IC50), EC50, ln(EC50).
Source text: as §1, §2
(§3) Drug Sensitivity in CCLE. This study used drug sensitivity data of human breast cancer cell lines from various sources. The DepMap portal provided the secondary Profiling Relative Inhibition Simultaneously in Mixtures (PRISM) [Corsello, S. M.; Nagari, R. T.; Spangler, R. D.; Rossen, J.; Kocak, M.; Bryan, J. G.; Humeidi, R.; Peck, D.; Wu, X.; Tang, A. A.; et al. Discovering the anti-cancer potential of non-oncology drugs by systematic viability profiling. Nat. Cancer 2020, 1, 235-248. https://doi.org/10.1038/s43018-019-0018-6] repurposing dataset (PRISM repurposing 19Q4, accessed on 3 Apr. 2023), which includes screening results of 1447 compounds in 22 human breast cancer cell lines. Additionally, we downloaded the Genomics of Drug Sensitivity in Cancer (GDSC1 and GDSC2) datasets [Yang, W.; Soares, J.; Greninger, P.; Edelman, E. J.; Lightfoot, H.; Forbes, S.; Bindal, N.; Beare, D.; Smith, J. A.; Thompson, I. R.; et al. Genomics of Drug Sensitivity in Cancer (GDSC): A resource for therapeutic biomarker discovery in cancer cells. […]

For the next data set, the system named is MCF7 cells. As to the kind of experiment: Drug sensitivity categorisation of breast cancer cell line MCF7. It counts as cell-based, human. Conditions: Luminal A MCF7 cells; categorised from IC50, ln(IC50), EC50, ln(EC50).
Source text: as §1, §2

For the next data set, the system named is human NSCLC cell lines. As to the kind of experiment: PRISM drug response (IC50/EC50) in CCLE NSCLC cell lines. It counts as cell-based. Conditions: average across CCLE human NSCLC cell lines, PRISM data.
The next data set deals with T47D breast cancer cells. The note with it: cited from earlier work.
In another data set the test system is HCC38. Briefly: Drug sensitivity (PRISM) of breast cancer cell line HCC38. It counts as cell-based, human. The note with it: TNBC cell line HCC38; categorised from IC50, ln(IC50), EC50, ln(EC50).
Source text: as §1, §2, §3

The subject of another data set is HCC1143. Briefly: Drug sensitivity categorisation of breast cancer cell line HCC1143. It counts as cell-based, human. Conditions: TNBC cell line HCC1143; categorised from IC50, ln(IC50), EC50, ln(EC50).
Source text: as §1, §2

The conditions of data set [1]: Phase II clinical studies; cited from earlier work.
For data set [2] the following is noted: Phase I clinical trials; cited from earlier work.
Another data set concerns advanced solid tumors. The note with it: Phase I, cited from earlier work.
Where [3] appears, read: patients with advanced solid tumors.

SMILES strings stand for the structures.

Source text for human NSCLC cell lines: Drug Response. The PRISM (Profiling Relative Inhibition Simultaneously in Mixtures) framework [Corsello, S. M., et al., Discovering the anti-cancer potential of non-oncology drugs by systematic viability profiling. […] 235-248] is a computational tool that estimates drug sensitivities of cancer cell lines using molecular profiling data, particularly gene expression data from the CCLE database. It was obtained the PRISM repurposing dataset of the secondary screen from DepMap release PRISM Repur-posing 19Q4 (https://depmap.org/portal/download/all/, accessed on 25 Jan. 2023). For this study, the PRISM drug response data was used from 94 NSCLC cell lines for 1,448 compounds to investigate the drug sensitivity of specific genes.

Consider `O=C(NC[C@H](O)CO)c1ccncc1Nc1ccc(I)cc1F` [AS703026], for which the “cell line sensitive or resistant to drug” value in the data set on HCC1806 and with HCC1937 was “resistant” each time.
Consider `N#C/C(=C(/N)Sc1ccc(N)cc1)c1ccccc1C(F)(F)F` [BRD-K12244279], for which the “cell line sensitive or resistant to drug” value with MCF7 cells is given as “resistant”.
Turning to `O=C(Nc1cccc(Nc2ncc(Br)c(NCCc3cnc[nH]3)n2)c1)N1CCCC1` [BX-912], in the data set on human NSCLC cell lines, the “averaged IC50 and EC50” value was “low”.
Turning to `COc1cccc(-c2cc(=O)c3ccccc3o2)c1N` [PD98059], the “cell line sensitive or resistant to drug” value in the data set on HCC1806 is “sensitive”; in the data set on HCC1937, “resistant”; in the data set with MCF7 cells, “sensitive”; in the data set on HCC38, “sensitive”. In addition, in the data set on T47D breast cancer cells, the “ERK phosphorylation response to MEK inhibition” value is recorded as “resistance”.
For `O=C(NOCC1CC1)c1ccc(F)c(F)c1Nc1ccc(I)cc1Cl` [PD184352], the “cell line sensitive or resistant to drug” value in the data set on MCF7 cells was “sensitive”; with HCC1143, “sensitive”; with HCC38 it was “resistant”. Besides, in [1], the efficacy entry is reported as “insufficient efficacy”. The tolerability entry in data set [2] is on record as “well tolerated”.
Consider `Cc1cc(I)ccc1Nc1c(C(=O)NOCC2CC2)cc(F)c(F)c1F` [PD198306], for which the “cell line sensitive or resistant to drug” value in the data set with HCC1806 was “sensitive”; in the data set with HCC1937, “resistant”; in the data set with MCF7 cells, “sensitive”; in the data set with HCC1143 it was “sensitive”; in the data set on HCC38, “resistant”. In the data set with T47D breast cancer cells, the “ERK phosphorylation response to MEK inhibition” value is “resistance”.
For the compound `O=C(NOC[C@H](O)CO)c1ccc(F)c(F)c1Nc1ccc(I)cc1F` [PD0325901], the “cell line sensitive or resistant to drug” value is on record as “sensitive” with HCC1806; “resistant” in the data set with HCC1937; “resistant” in the data set on MCF7 cells; “sensitive” in the data set on HCC1143; “resistant” with HCC38.
Take `OCc1ccc(-c2ccc(-c3ccc(CO)s3)o2)s1` [RITA]: the “cell line sensitive or resistant to drug” value in the data set on HCC1806, in the data set with HCC1937, in the data set with MCF7 cells, with HCC1143 and in the data set on HCC38 was “sensitive” each time.
In the case of `Cc1cnc(Nc2ccc(OCCN3CCCC3)cc2)nc1Nc1cccc(S(=O)(=O)NC(C)(C)C)c1` [TG101348], the “cell line sensitive or resistant to drug” value in the data set on HCC1806, in the data set with HCC1937 and in the data set with MCF7 cells was “sensitive” in each case.
For the compound `N#CC(=C(/N)Sc1ccccc1N)/C(C#N)=C(\N)Sc1ccccc1N` [U0126], the “cell line sensitive or resistant to drug” value in the data set with MCF7 cells was “sensitive”. In the data set on T47D breast cancer cells, the “ERK phosphorylation response to MEK inhibition” value is reported as “resistance”.
Consider `C[C@@H](N)[C@H]1CC[C@H](C(=O)Nc2ccncc2)CC1` [Y-27632], for which the “cell line sensitive or resistant to drug” value in the data set with HCC1806, with HCC1143 and in the data set with HCC38 was “sensitive” in each case.
`COc1cccc2c1C(=O)c1c(O)c3c(c(O)c1C2=O)C[C@@](O)(C(C)=O)C[C@@H]3O[C@H]1C[C@H](N)[C@H](O)[C@H](C)O1` [daunorubicin]: in the data set with human NSCLC cell lines, the “averaged IC50 and EC50” value was “low”.
As for `Cc1cn(-c2cc(NC(=O)c3ccc(C)c(Nc4nccc(-c5cccnc5)n4)c3)cc(C(F)(F)F)c2)cn1` [nilotinib], the “cell line sensitive or resistant to drug” value is recorded as “sensitive” in the data set with HCC1806, “resistant” in the data set with HCC1937, “resistant” in the data set on HCC1143 and “resistant” in the data set with HCC38.
For `CC[C@@H]1C(=O)OC[C@@H]1Cc1cncn1C` [pilocarpine], the “cell line sensitive or resistant to drug” value in the data set with HCC1806, in the data set on HCC1937, in the data set on HCC1143 and with HCC38 was “sensitive” throughout.
Consider `c1ccc2c(CCNc3ccc(Nc4ccncc4)cc3)c[nH]c2c1` [serdemetan], for which the tumor response entry in the data set on advanced solid tumors (a breast cancer patient) is “partial response”. Moreover, in the data set with advanced solid tumors (setting [3]), the QTc liability entry is on record as “exposure-related QTc liability” and the tolerability result is “well tolerated”. In the data set with HCC1143, the “cell line sensitive or resistant to drug” value is listed as “sensitive”. For the same compound, in the data set with HCC38, the “cell line sensitive or resistant to drug” value is recorded as “sensitive”.
For `CNC(=O)c1cc(Oc2ccc(NC(=O)Nc3ccc(Cl)c(C(F)(F)F)c3)cc2)ccn1` [sorafenib], the “cell line sensitive or resistant to drug” value in the data set on HCC1806 and in the data set on HCC38 was “sensitive” each time.
With `C(#CCN1CCCC1)CN1CCCC1` [tremorine], the “cell line sensitive or resistant to drug” value in the data set on HCC1806, in the data set on HCC1937, with HCC1143 and in the data set with HCC38 was “sensitive” throughout.
